The target in one series is T1, mAChR4 (Homo sapiens, UniProt P08173).
T1 sequence (P08173 1-479): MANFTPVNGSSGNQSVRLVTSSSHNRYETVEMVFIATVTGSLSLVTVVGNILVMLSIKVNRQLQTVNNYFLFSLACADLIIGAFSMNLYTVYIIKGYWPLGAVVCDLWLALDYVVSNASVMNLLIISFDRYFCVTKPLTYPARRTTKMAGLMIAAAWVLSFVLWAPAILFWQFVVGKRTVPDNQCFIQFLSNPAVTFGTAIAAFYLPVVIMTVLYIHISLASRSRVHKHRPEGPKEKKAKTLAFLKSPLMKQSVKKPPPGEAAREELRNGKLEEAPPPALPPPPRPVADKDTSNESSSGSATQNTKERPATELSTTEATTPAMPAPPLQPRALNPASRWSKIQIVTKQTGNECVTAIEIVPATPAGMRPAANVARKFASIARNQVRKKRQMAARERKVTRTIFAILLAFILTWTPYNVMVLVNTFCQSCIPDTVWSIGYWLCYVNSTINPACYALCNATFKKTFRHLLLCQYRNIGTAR
Particulars: target not printed with the value; cited from earlier work.

The next series concerns the target T2, hM4 (Homo sapiens, UniProt P08173).
T2 sequence (P08173 1-479): T1 sequence (P08173 1-479)
Particulars: read-out: hM4 (PAM) EC50; cited from earlier work.

The conditions of series [1]: Bubser 2014; Pancani 2015; Gould 2018; cited from earlier work.
For series [2] the following is noted: Bubser 2014; Pancani 2015; Gould 2018; cited from earlier work. This is another data set of the same source.
Series [3] has as its system WT C57BL/6 mice fed ethanol containing Lieber DeCarli diet. The series can be described thus: mAChR4 PAM VU0467154 in chronic ethanol feeding (Lieber DeCarli diet) of WT mice. It counts as in vivo, mouse. The source says: Female mice (age, 8 weeks) were placed on Lieber DeCarli diet for 10 weeks as previously described (Llorente et al., 2017). In brief, the Lieber DeCarli diet comprises Micro Stabilized Rod Liq AC IRR 438 (LD101A; TestDiet), Maltodextrin IRR (9598; TestDiet) and 200-proof ethanol (Koptec). The caloric intake from ethanol was 0 on day 1, 10% of total calories on days 2 and 3, 20% on days 4 and 5, 30% from day 6 until the end of 6 weeks, and 36% until the end of the treatment. Control mice received an isocaloric amount of iso-maltose instead of ethanol.
To enhance GAP formation, WT C57BL/6 mice fed Lieber DeCarli diet containing ethanol or isocaloric iso-maltose for 10 weeks were treated for the last 29 days with the specific mAChR4 PAM VU0467154 (5 mg/kg), which was dissolved in the liquid diet. […]
Real-time quantitative PCR. RNA was extracted from mouse tissues and cDNA was generated 511 (Duan et al., 2019). Primer sequences for mouse genes were obtained from the NIH qPrimerDepot. Gene expression was determined with Sybr Green (Bio-Rad Laboratories) using ABI StepOnePlus real-time PCR system. The qPCR value was normalized to Tbp or 18S housekeeping genes. To quantify the total bacterial load in feces, the 515 qPCR value of 16S rRNA gene for each sample was multiplied by the total amount of DNA (μg) mg^−1 of feces. Published bacterial primer sequences were used for 16S rRNA gene (Maeda et al., 2003) (Table 3). […]
Flow cytometry. Isolation: Small intestine was harvested, and the epithelial cell layer was removed. Pieces were digested in media containing 1 mg/mL collagenase (Millipore Sigma), 0.1 U/mL dispase (Worthington Biochem) and 0.1 mg/mL DNase I (Millipore Sigma) at 37° C. at 150 rpm for 30 minutes. A 40% and 80% Percoll gradient was used to collect the lymphoid fractions at the interphase. Flow cytometry: LP-immune cells were pelleted and blocked with anti-mouse CD16/32 antibody (Thermo Fisher) for 15 minutes. Cells were divided to perform 3 different panels to analyze APCs, ILC3 and Tregs.
Stimulation and staining: To stimulate IL-23 secretion by LP-DCs, cells were re-stimulated in vitro with 100 ng/ml flagellin (Invivogen) for 2.5 hours in the presence of 0.7 μl/ml BD GolgiStop™ (BD Bioscience) to accumulate cytokines and/or proteins. The murine APC panel consisted of CD45.2 (V500, clone 104, BD), CD11c (FITC, clone N418, ThermoFisher), MHC Class II (I-A/I-E) (PE, clone M5/114. 15.2, ThermoFisher), CD11b (PerCP544 Cy5.5, clone M1/70, BD), CD103 (APC-R700, clone M290, BD), CX3CR1 (BV421, clone SA011F11, BioLegend), fixable viability stain (FVS) (575V, BD), IL-10 (BV711, clone JES5-16E3, BD) and IL-23 p19 (AF647, clone N71-1183).
Immunoblot analyses. To measure expression levels of mAChR4, GCs were isolated as described above. Immunoblot analysis was performed as described 33 using anti-AChR4 1:1000 (#AMR-004; Alomone labs) and anti-β-actin 1:5000 (Sigma-Aldrich) antibody as loading control. Protein from proximal small intestine was extracted and immunoblot analysis was performed using anti-Reg3g 1:500 (ab198216, Abcam), anti-Reg3b 1:500 (ABIN1870289, Antibodies online), and anti-IL-10 1:1000 (sc-365858; Santa Cruz Biotechnology) antibodies. Stain-free imaging technology using polyacrylamide gels (BioRad) containing a proprietary trihalo compound to make proteins fluorescent, was employed to calculate total protein. Immunoblots were visualized with a charged coupling device camera in a luminescent image analyzer (Gel-Doc; Bio-Rad). Immunoblots were analyzed by densitometry, using Image Lab version 6.0.1 software (Bio-Rad).

The next series has as its system rodent model. Particulars: systemic administration; Walker et al., 2020; cited from earlier work.
For the next series, the system named is cultured GCs. Kind of series: IL-6 treatment of cultured goblet cells. In kind it is cell-based.
Series [4] relates to small intestinal organoids from WT mice. Kind of series: IL-6 stimulation of small intestinal organoids (Chrm4 mRNA, mAChR4 immunoblot). In kind it is cell-based, mouse. As to conditions: IL-6 20 ng/ml in the presence of ethanol for 12 hours. How it is done: Real-time quantitative PCR. RNA was extracted from mouse tissues and cDNA was generated 511 (Duan et al., 2019). Primer sequences for mouse genes were obtained from the NIH qPrimerDepot. Gene expression was determined with Sybr Green (Bio-Rad Laboratories) using ABI StepOnePlus real-time PCR system. The qPCR value was normalized to Tbp or 18S housekeeping genes. To quantify the total bacterial load in feces, the 515 qPCR value of 16S rRNA gene for each sample was multiplied by the total amount of DNA (μg) mg^−1 of feces. Published bacterial primer sequences were used for 16S rRNA gene (Maeda et al., 2003) (Table 3).
Small intestinal organoid isolation and culture. Small intestinal crypts were isolated from WT mice, cultured and stained as described 41 and treated with ethanol (10 and 50 mM) and IL-6 (20 ng/ml) (Biolegend) for 12 hours.
Immunoblot analyses. To measure expression levels of mAChR4, GCs were isolated as described above. Immunoblot analysis was performed as described 33 using anti-AChR4 1:1000 (#AMR-004; Alomone labs) and anti-β-actin 1:5000 (Sigma-Aldrich) antibody as loading control. […] Immunoblots were analyzed by densitometry, using Image Lab version 6.0.1 software (Bio-Rad).

Where [5] appears, read: ethanol diet 10 weeks, 5 mg/kg in the diet during the last 29 days.
The mark [6] stands for this setting: ethanol fed mice, anaerobic culture.
The mark [7] stands for this setting: ethanol fed mice, cells stimulated with flagellin 100 ng/ml 2.5 hours.
[8] abbreviates: ethanol fed mice, proximal small intestine.

Usually IC50 stands for the concentration needed to halve the response being measured. `Cc1cc2c(nc1N1CCC(Oc3ccc4c(c3)COC4)CC1)CNC2=O` [MK-4710]: at mAChR4, the IC50 is 17 nM.

What is called EC50 is the midpoint of the concentration-response curve. `Cc1nnc2sc(C(=O)NC3CN(c4cccnc4)C3)c(N)c2c1C` [PT-1148]: on hM4, the EC50 is 3 nM.

`Cc1cc(C)c2c(N)c(C(=O)NC3CN(c4cccnc4)C3)sc2n1` [PT-3763]: on hM4, the EC50 is 45 nM.

In the case of `CCOC(=O)N1CCCC(N2CCC(c3cccnc3OC)CC2)CC1` (centres unmarked) [PT-6950], the EC50 at hM4 was 20 nM.

For `Cc1nnc2sc(C(=O)NCc3ccc(S(=O)(=O)C(F)(F)F)cc3)c(N)c2c1C` [VU0467154], the oral bioavailability result in series [1] is reported as “excellent”. The “gastrointestinal motility side effects” value in series [2] is listed as “no gastrointestinal motility side effects”. In addition, in series [3] (setting [5]), the “ethanol-induced liver inflammation (hepatic Cxcl1 mRNA)” value was “protected”; the “ethanol-induced liver injury (plasma ALT, H&E)” value is given as “protected”; the “ethanol-induced steatosis (ORO-stained liver sections)” value is “protected”. Further, the “ethanol-induced GAP closure (number of GAPs per villus)” value in series [3] (ethanol diet 10 weeks, 5 mg/kg in the diet during the last 29 days, small intestine) was “reduced”. Also, in series [3] (setting [6]), the “ethanol mediated bacterial translocation to MLN (CFU)” value is “prevented” and the “ethanol mediated bacterial translocation to liver (CFU)” value was “prevented”. In series [3] (setting [7]), the “Frequencies of CD103+ CD11b+ DC populations” value is recorded as “increased” and the “Frequencies of LP-APCs (CD11c+, MHCII+)” value was “increased”. Also, in series [3] (setting [8]), the “intestinal IL-10 expression (immunoblot)” value is reported as “induced”, the “intestinal Reg3b expression (immunoblot)” value is reported as “induced” and the “intestinal Reg3g expression (immunoblot)” value is “induced”. Besides, the “ethanol seeking and consumption” value with rodent model was “reduced”.

For the molecule “IL-6: cytokine (Biolegend) used at 20 ng/ml on organoids”, the mAChR4 expression result in the series with cultured GCs was “induced”. Further, in series [4], the “mAChR4 expression (Chrm4 mRNA, mAChR4 protein)” value is given as “induced”.

The values above are taken from patent US20250302831A1, “THERAPY FOR ALCOHOL-RELATED LIVER DISEASE” (THE REGENTS OF THE UNIVERSITY OF CALIFORNIA, priority 2021, published 2025).
